How the values were obtained:
[1] = in vitro; assay type: in vitro ADME, mouse; details: plasma; for Plasma Stability 240 min mouse [% remain.]: 4 h
[2] = Metabolic stability assay, human microsomes; assay type: in vitro ADME; details: human, microsomes; for Metabolic Stability 60 min hum [% remain.]: 1 h
Description: (§1) 4. Plasma and Metabolic Stability Assays
(§2) The assays were conducted according to literature precedents (F. P. Guengerich, Analysis and Characterization of Enzymes; in: Principles and Methods of Toxicology; A. W. Hayes (Ed.) Raven Press: New York, 1989, 777-813; R. Singh et al., In vitro metabolism of a potent HIV-protease inhibitor (141W94) using rat, monkey and human liver S9, Rapid Commun. Mass Spectrom. 1996, 10, 1019-1026).
(§3) Metabolic Stability Assay
(§4) Microsomes from a human 50 donor mixed gender pool and 1:1 mixtures of microsomes from CD-1 mouse single-gender pools are purchased from Celsis (Belgium). The enzymatic reaction is performed in a buffer containing an NADPH regeneration system and microsomes with the following end concentrations: 100 mM potassium phosphate buffer (all from Sigma), 1 mg/mL glucose-6-phosphate, 1 mg/mL β-nicotinamide adenine dinucleotide phosphate (NADP), 0.65 mg/mL magnesium chloride, 0.8 units/mL of glucose-6-phosphate dehydrogenase (prediluted with 5 mM citrate buffer), 10 μM compound and 1 mg/ml microsomal protein. Compounds are incubated at 37° C. in duplicates and samples are taken after 0, 20 and 60 minutes. After acetonitrile precipitation (2 volumes) and HPLC/MS/MS analysis metabolic turnover is expressed in % of the initial 0 minutes value and half life T½ (min) is calculated. Verapamil for human and propranolol for mouse are used as reference and are assayed with every experimental set.

[3] = in vitro; assay type: in vitro ADME, human; details: human, plasma; for Plasma Stability 240 min hum [% remain.]: 4 h
[4] = Metabolic stability assay, CD-1 mouse microsomes; assay type: in vitro ADME; details: microsomes; for Metabolic Stability 60 min mouse [% remain.]: 1 h
Description: as §1, §2, §3, §4
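Throughout, for Plasma Stability 240 min mouse [% remain.]: sodium citrate stabilized mouse plasma, parent compound quantified by HPLC/MS/MS relative to its peak area at time zero, run in triplicate.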
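Throughout, for Plasma Stability T½ [min] mouse: sodium citrate stabilized mouse plasma, parent compound quantified by HPLC/MS/MS relative to its peak area at time zero, run in triplicate.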

SMILES	Plasma Stability T½ [min] mouse ([1]; both, CD-1, mouse, 10 µM) [min]	Plasma Stability 240 min mouse [% remain.] ([1]; both, CD-1, mouse, 10 µM)	Metabolic Stability T½ [min] hum ([2]; both, 10 µM) [min]	Metabolic Stability 60 min hum [% remain.] ([2]; both, 10 µM)	Plasma Stability T½ [min] hum ([3]; 10 µM) [min]	Plasma Stability 240 min hum [% remain.] ([3]; 10 µM)	Metabolic Stability T½ [min] mouse ([4]; both, CD-1, mouse, 10 µM) [min]	Metabolic Stability 60 min mouse [% remain.] ([4]; both, CD-1, mouse, 10 µM)	half-life at 10 µM ([2]; both sexes) [h]	half-life at 10 µM ([4]; both sexes, CD-1, mouse) [h]	Plasma Stability T½ [min] mouse ([1]; mouse) [min]	Plasma Stability 240 min mouse [% remain.] ([1]; mouse)	Metabolic Stability T½ [min] hum [2] [min]	Metabolic Stability 60 min hum [% remain.] [2] [% remain.]	Plasma Stability T½ [min] hum [3] [min]	Plasma Stability 240 min hum [% remain.] [3] [% remain.]	Metabolic Stability T½ [min] mouse ([4]; mouse) [min]	Metabolic Stability 60 min mouse [% remain.] ([4]; mouse)
CN1CC(=O)N2C[C@@H](NC(=O)CN3CCCC3)C[C@H]2COc2ccc(F)cc2C(=O)N(C)[C@@H](C(=O)N2CCCC2)CCC1=O [Ex. 98, N-[(2S,11R,19aS)-15-fluoro-7,12-dimethyl-5,8,13-trioxo-11-(1-pyrrolidinylcarbonyl)-2,3,6,7,8,9, 10,11,12,13,19,19a-dodecahydro-1H,5H-pyrrolo[2,1-c][1,4,7,12]benzoxatriazacyclopentadecin-2-yl]-2-(1-pyrrolidinyl)acetamide]	> 240	78	> 60	97	> 240	100	> 60	100	–	–	–	–	–	–	–	–	–	–
CCCCCCCCCC(=O)N[C@H]1C[C@H]2COc3ccc(F)cc3C(=O)N(C)[C@@H](C(=O)NCc3ccc4ccccc4c3)CCC(=O)N(C)CC(=O)N2C1 [Ex. 102, (2S,11R,19aS)-2-(decanoylamino)-15-fluoro-7,12-dimethyl-N-(2-naphthylmethyl)-5,8,13-trioxo-2,3,6,7,8,9,10,11,12,13,19,19a-dodecahydro-1H,5H-pyrrolo[2,1-c][1,4,7,12] benzoxatriazacyclopentadecine-11-carboxamide]	> 240	75	–	4	> 240	65	–	39	0.383	0.7	–	–	–	–	–	–	–	–
CC(=O)N[C@H]1C[C@H]2COc3ccc(F)cc3C(=O)N(C)[C@H](C(=O)N3CCCC3)CCC(=O)N(C)CC(=O)N2C1 [Ex. 37, N-[(2S,11S,19aS)-15-fluoro-7,12-dimethyl-5,8,13-trioxo-11-(1-pyrrolidinylcarbonyl)-2,3,6,7,8,9,10,11,12,13,19,19a-dodecahydro-1H,5H-pyrrolo[2,1-c] [1,4,7,12]benzoxatriazacyclo-pentadecin-2-yl]acetamide]	–	–	–	–	–	–	–	–	–	–	> 240	100	> 60	100	> 240	77	> 60	100
CN1CC(=O)N2C[C@H](NC(=O)CCC(=O)O)C[C@H]2COc2ccc(cc2)C(=O)N(C)[C@H](C(=O)NCc2ccncc2)CCC1=O [Ex. 267, 4-{[(4S,6R,15S)-11,16-dimethyl-9,12,17-trioxo-15-{[(4-pyridinylmethyl)amino]carbonyl}-2-oxa-8,11,16-triazatricyclo[16.2.2.0^4,8]docosa-1(20),18,21-trien-6-yl]amino}-4-oxobutanoic acid]	> 240	79	> 60	99	> 240	75	> 60	100	–	–	–	–	–	–	–	–	–	–
CN(C)CC(=O)N[C@@H]1C[C@H]2COc3cccc(c3)C(=O)N(C)C[C@H](NC(=O)Cc3ccc4ccccc4c3)C(=O)N(C)CC(=O)N2C1 [Ex. 230, 2-(dimethylamino)-N-[(4S,6R,13S)-11,15-dimethyl-13-{[2-(2-naphthyl)acetyl]amino}-9,12,16-trioxo-2-oxa-8,11,15-triazatricyclo[15.3.1.0^4,8]henicosa-1(21),17,19-trien-6-yl]acetamide]	> 240	95	> 60	61	> 240	100	> 60	90	–	–	–	–	–	–	–	–	–	–
CCN(CC)[C@H]1C[C@H]2COc3ccc(F)cc3C(=O)N(C)[C@H](C(=O)N3CCCC3)CCC(=O)N(C)CC(=O)N2C1 [Ex. 43, (2S,11S,19aS)-2-(diethylamino)-15-fluoro-7,12-dimethyl-11-(1-pyrrolidinylcarbonyl)-2,3,6,7,9,10,11,12,19,19a-decahydro-1H,5H-pyrrolo [2,1-c] [1,4,7,12]benzoxatriazacyclopentadecine-5,8,13-trione]	> 240	89	> 60	100	> 240	82	> 60	98	–	–	–	–	–	–	–	–	–	–
CN1CCC[C@H](N2CCN(S(C)(=O)=O)CC2)C(=O)N2C[C@@H](O)C[C@H]2COc2cccc(c2)C1=O [Ex. 583, (4S,6S,10S)-6-hydroxy-14-methyl-10-[4-(methylsulfonyl)piperazino]-2-oxa-8,14-diazatricyclo[14.3.1.0^4,8]icosa-1(20),16,18-triene-9,15-dione]	> 240	83	> 60	100	> 240	91	> 60	95	–	–	–	–	–	–	–	–	–	–

From patent US9512139B2, “Conformationally constrained, fully synthetic macrocyclic compounds” (POLYPHOR AG, priority 2009, dated 2016)
